The values that follow come from publication PMC12850010, “Interaction of cytochrome P450 3A4 with the hydrophilic ligand tetraethylene glycol” (Biochemical and biophysical research communications, 2025).

Data set [1] concerns the target T1, CYP3A4 (Homo sapiens, UniProt P08684). Description: Spectral binding (equilibrium) titrations of CYP3A4. The conditions noted are these: for Kd: human, CYP3A4 protein solution (2 μM), sigmoidal (Hill) fit.
Experimental: (§1) Equilibrium titrations of CYP3A4 were conducted in a Cary 300 spectrophotometer at ambient temperature in 0.1 M phosphate, pH 7.4. […] The binding parameters were determined from fittings to the plot of the absorbance change (peak-to-trough separations in the difference spectra; ΔA) vs ligand concentration.
Data set [2] deals with T1, CYP3A4. The note with it: pH 7.4.
Experimental: as §1

As usually defined, the Kd is the equilibrium constant for the complex coming apart. A lower Kd goes with tighter binding.

T1 sequence (P08684 with tags, fused parts or gaps): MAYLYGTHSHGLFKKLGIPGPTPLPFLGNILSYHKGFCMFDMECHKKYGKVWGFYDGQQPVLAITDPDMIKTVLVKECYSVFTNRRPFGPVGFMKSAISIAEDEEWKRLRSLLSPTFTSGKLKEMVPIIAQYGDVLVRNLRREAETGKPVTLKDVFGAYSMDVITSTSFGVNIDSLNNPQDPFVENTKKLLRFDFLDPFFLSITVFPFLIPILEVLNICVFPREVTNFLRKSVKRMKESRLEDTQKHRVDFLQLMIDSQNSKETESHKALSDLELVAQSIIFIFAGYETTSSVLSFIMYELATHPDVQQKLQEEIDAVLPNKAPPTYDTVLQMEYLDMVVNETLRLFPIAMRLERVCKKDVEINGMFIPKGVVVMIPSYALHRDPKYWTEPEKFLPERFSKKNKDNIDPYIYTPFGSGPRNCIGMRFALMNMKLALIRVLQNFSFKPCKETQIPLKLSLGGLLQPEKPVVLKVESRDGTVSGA

With `Cc1ncc2n1-c1ccc(Cl)cc1C(c1ccccc1F)=NC2` [Midazolam], at CYP3A4 [1] (15 mM TEG vs no TEG), the “decrease of binding affinity for WT CYP3A4 in the presence of TEG” value is on record as 30%.

In the case of `CC(=O)[C@H]1CC[C@H]2[C@@H]3CCC4=CC(=O)CC[C@]4(C)[C@H]3CC[C@]12C` [Progesterone], the “nH (Hill coefficient)” value on CYP3A4 [2] amounted to 1.6 ± 0.1. In addition, the Kd at CYP3A4 [1] (pH 7.4, S50, 15 mM TEG) was 16 ± 2 µM; on CYP3A4 [1] (pH 7.4, S50, no TEG) it was 17 ± 1 µM.
